In patent US20110224182A1, “SALTS OF (3-0-(3',3'-[…]) BETULINIC ACID AND SOLID STATE FORMS THEREOF” (Myriad Pharmaceuticals, Incorporated, priority 2007, published 2011):
Converted amounts (≈) assume the structure as drawn. Like-named read-outs stand apart in the source and are kept apart here.

Columns and labels:
[1] = In vivo pharmacokinetic studies (Method H), plasma levels by LC-MS/MS; set-up: species or system male Sprague-Dawley rats; conditions: rat; for Mean plasma concentration: as free drug
Description: Method H—In Vivo Pharmacokinetic Studies
In vivo experiments were conducted in male Sprague-Dawley rats having a body mass of 225 g to 275 g with an appropriate cannula surgically inserted. Rats were supplied food and water ad libitum until 12 hours before dosing when food was removed. Food was withheld until four hours post-dosing. Water was available ad libitum. Each of group of rats consisted of 3 rats.
Dosing solutions were prepared the same day as dose administration. […] The administered dose of each salt was 1 mg/kg for intravenous administration and 10 mg/kg for oral gavage. Formulations for intravenous administration were filtered after preparation. Concentrations of respective dosing solutions were as depicted in Table 1 below.
Sampling was performed at predose, 2, 5, 15, and 30 minutes, 1, 2, 4, and 8 hours post dose. Blood samples were collected, placed into chilled tubes containing sodium heparin, and kept chilled until centrifuged at 4° C. at 13,000 rpm for 5 minutes. Plasma was separated and stored at −60° C. to −80° C. until analyzed.
Plasma levels of the compounds were determined by LC-MS/MS. Quantification of the compounds in plasma was performed against a calibration curve generated by serial dilution of a test article DMSO stock solution into blank heparinized rat plasma (50, 100, 200, 500, 1,000, 2,000, 5,000, and 10,000 ng/mL final concentrations of free drug). Quality control samples were prepared in the same fashion (250, 1,000, and 5,000 ng/mL final concentrations of free drug). The standard curve and quality control DMSO stock solutions were derived from independent weightings.
Plasma concentrations versus time data are plotted in FIGS. 26 through 37.
All data are expressed as ng/mL of the free drug. Samples that were below the limit of quantification (“bloq”) were assigned a value of zero for the mean concentration calculations.

[2] = Solubility (Method B): solvent added in portions until a clear solution is obtained; format: physicochemical; conditions: ambient temperature
Description: Method B-Solubility Measurement of the water solubility of the salts of this invention is accomplished by using methods well known to those skilled in the art. Specifically, to a weighed amount of DSB (+)-[…], DSB choline […], DSB diethanolamine […], or DSB diethylamine […], a solvent is added in small portions until a clear solution is obtained. The total volume of the solution is measured. The solubility of the particular DSB salt, in mg/mL, is calculated by dividing the weight of the salt (in mg), by the volume of the solution (in mL).

[3] = oral gavage 10 mg/kg, 0.083 h post dose
[4] = oral gavage 10 mg/kg, 0.25 h post dose
[5] = oral gavage 10 mg/kg, 0.5 h post dose
[6] = oral gavage 10 mg/kg, 1 h post dose
[7] = oral gavage 10 mg/kg, 2 h post dose
[8] = oral gavage 10 mg/kg, 4 h post dose
[9] = oral gavage 10 mg/kg, 8 h post dose
[10] = oral gavage 10 mg/kg, relative to DSB-2 NMG intravenous

Row | Molecule | Mean plasma concentration [1, 3] [ng/mL] | Mean plasma concentration [1, 4] [ng/mL] | Mean plasma concentration [1, 5] [ng/mL] | Mean plasma concentration [1, 6] [ng/mL] | Mean plasma concentration [1, 7] [ng/mL] | Mean plasma concentration [1, 8] [ng/mL] | Mean plasma concentration [1, 9] [ng/mL] | AUC24 h ([1]; oral gavage 10 mg/kg, mean) [ng·h/mL] | Cmax ([1]; oral gavage 10 mg/kg, mean) [ng/mL] | Tmax ([1]; oral gavage 10 mg/kg, mean) [min] | % Bioavailability [1, 10] [%] | also measured
1 | 3-O-(3′,3′-dimethylsuccinyl)betulinic acid, bis-diethylamine salt [DSB-2 Diethylamine] | 352.7 | 4576.7 | 7420.0 | 6873.3 | 3750.0 | 1886.7 | 233.7 | 21172.3 | 7453.3 | 40.2 | 30.7 | 
2 | C=C(C)[C@@H]1CC[C@]2(C(=O)O)CC[C@]3(C)[C@H](CC[C@@H]4[C@@]5(C)CC[C@H](OC(=O)CC(C)(C)C(=O)O)C(C)(C)[C@@H]5CC[C@]43C)[C@@H]12 [DSB Free Acid, 3-O-(3′,3′-dimethylsuccinyl)betulinic acid] |  |  |  |  |  |  |  |  |  |  |  | solubility ([2]; 1-propanol, organic solvent or mixture, thermodynamic from solid, 1-propanol, read-out: Solubility in 1-propanol): 6000 µg/mL (≈ 10.3 mM); solubility ([2]; 2,2,2-trifluoroethanol, organic solvent or mixture, thermodynamic from solid, 2,2,2-trifluoroethanol, read-out: Solubility in 2,2,2-trifluoroethanol): 2500 µg/mL (≈ 4.27 mM); solubility ([2]; 2-propanol, organic solvent or mixture, thermodynamic from solid, 2-propanol, read-out: Solubility in 2-propanol): 6000 µg/mL (≈ 10.3 mM); solubility ([2]; ethanol, organic solvent or mixture, thermodynamic from solid, ethanol, read-out: Solubility in ethanol): 15000 µg/mL (≈ 25.6 mM); solubility ([2]; methanol, organic solvent or mixture, thermodynamic from solid, methanol, read-out: Solubility in methanol): 7500 µg/mL (≈ 12.8 mM); solubility ([2]; water, thermodynamic from solid, water, read-out: Solubility in water): 350 µg/mL (≈ 0.598 mM)
3 | C=C(C)[C@@H]1CC[C@]2(C(=O)O)CC[C@]3(C)[C@H](CC[C@@H]4[C@@]5(C)CC[C@H](OC(=O)CC(C)(C)C(=O)O)C(C)(C)[C@@H]5CC[C@]43C)[C@@H]12.OCCNCCO.OCCNCCO [DSB-2 Diethanolamine, diethanolamine disalt of DSB] | 880.7 | 5190.0 | 5743.3 | 5873.3 | 4730.0 | 1830.0 | 1149.3 | 30958.7 | 6720.0 | 72 | 44.9 | 
4 | C=C(C)[C@@H]1CC[C@]2(C(=O)O)CC[C@]3(C)[C@H](CC[C@@H]4[C@@]5(C)CC[C@H](OC(=O)CC(C)(C)C(=O)O)C(C)(C)[C@@H]5CC[C@]43C)[C@@H]12.CNC[C@H](O)[C@@H](O)[C@H](O)[C@H](O)CO.CNC[C@H](O)[C@@H](O)[C@H](O)[C@H](O)CO [DSB-2 NMG, reference compound] | 491.0 | 3706.7 | 3246.7 | 3236.7 | 1973.7 | 1662.3 | 635.7 | 18041.1 | 4480.0 | 96 | 26.2 | % Bioavailability ([1]; intravenous 1 mg/kg (reference)): 100.0%; AUC24 h ([1]; intravenous 1 mg/kg, mean): 6890.6 ng·h/mL; Cmax ([1]; intravenous 1 mg/kg, mean): 13785.9 ng/mL; Tmax ([1]; intravenous 1 mg/kg, mean): 0 min
5 | bis-(+)-arginine salt of DSB [DSB-2 (+)-Arginine] | 2003.3 | 6796.7 | 6140.0 | 5793.3 | 4590.0 | 1615.3 | 532.3 | 24342.9 | 7093.3 | 19.8 | 35.3 | 
6 | bis-choline salt of DSB [DSB-2 Choline] |  |  |  |  |  |  |  |  |  |  |  | % Bioavailability ([1]; in vivo, 10 mg/kg): 30.3%; AUC24 h ([1]; in vivo, po, 10 mg/kg): 20872.2 ng·h/mL
